One assay deals with T1, human P2X4 (Homo sapiens, UniProt Q99571).
T1 sequence (Q99571 1-388): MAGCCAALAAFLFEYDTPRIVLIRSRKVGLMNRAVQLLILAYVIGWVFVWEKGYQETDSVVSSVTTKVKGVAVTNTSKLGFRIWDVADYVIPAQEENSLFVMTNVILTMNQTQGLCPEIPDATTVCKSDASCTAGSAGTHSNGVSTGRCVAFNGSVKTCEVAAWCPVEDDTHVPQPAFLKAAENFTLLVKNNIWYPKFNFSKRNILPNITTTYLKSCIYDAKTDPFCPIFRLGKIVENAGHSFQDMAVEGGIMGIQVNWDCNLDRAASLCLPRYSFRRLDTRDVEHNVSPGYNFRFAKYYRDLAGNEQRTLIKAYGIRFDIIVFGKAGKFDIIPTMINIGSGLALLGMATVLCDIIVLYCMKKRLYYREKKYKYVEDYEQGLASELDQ
Nature of the assay: Human P2X4 HEK Cell FLIPR Assay. In kind it is cell-based. To be noted: HEK293, HEK293 cells, agonist Bz-ATP at EC80; percentage of maximal inhibition; read-out: Human P2X4 HEK Cells (FLIPR Assay) avg Efficacy [%]. A digest of the protocol:
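HEK293 cells stably expressing human P2X4, Fluo8-AM loaded 30 min at 37° C, then compound 30 min at room temperature (0.5% DMSO, pH 7.4 buffer with 1.8 mM CaCl2). Bz-ATP at its daily-determined EC80 added; calcium fluorescence read over 120 sec; IC50 from peak RFU normalized to agonist control, triplicates.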

For another assay, the system named is C57BL/6 mice. Nature of the assay: CFA Inflammation Model in Mice with Pain Behaviour Read Out. The following applies: oral 0.3, 1, 3 mg/kg, day 2 post-CFA, 1 h after treatment, vs vehicle. In kind it is in vivo, mouse. As to the method:
Wild type female C57BL/6 mice (Taconic) received intraplantar injection of complete Freund's adjuvant (CFA) (30 μL, 1 mg/mL, Sigma) into the left hind paw under isoflurane anesthesia. Animals were administered orally with example 326 (0.3, 1, and 3 mg/kg, n=10/group) on day 2 post-CFA injection. Spontaneous pain-related behavior in freely moving animals was assessed using the automated dynamic weight bearing device (DWB, Bioseb, France) one hour after compound treatment according to published and validated protocols (Robinson et al., 2012; Tetreault et al., 2011; Gruen et al. 2014). For behavioral testing, the animal was placed inside a Plexiglas chamber in which the exerted pressure on the floor was measured. The animals were allowed to move freely within the apparatus for 5 min and subsequently pain behavior is recorded for a test period of another 5 min. The relative weight distribution is calculated by determining the ratio of the weight put on naïve (contralateral) vs. that put on the intraplantar CFA treated (ipsilateral) paws.
FIG. 3 as nonbinding explanatory example of compounds according to the invention represents the ratio of weight distribution in percent (y-axis) of mice orally treated with example 326 or vehicle 1 hour prior to weight distribution measurement. Each symbol represents the relative weight distribution for one mouse. […]

As for `N#Cc1cnn(-c2ccc(NC(=O)Cc3ccccc3Cl)cc2S(N)(=O)=O)c1` [Example 39, 2-(2-Chlorophenyl)-N-[4-(4-cyano-1H-pyrazol-1-yl)-3-sulfamoylphenyl]acetamide], the Emax at human P2X4 amounted to 96%.

Consider `NS(=O)(=O)c1cc(NC(=O)Cc2ccccc2Cl)ccc1-c1cnn(C(F)F)c1` [Example 326, 2-(2-Chlorophenyl)-N-{4-[1-(difluoromethyl)-1H-pyrazol-4-yl]-3-sulfamoylphenyl}acetamide], for which the “pain behavior (relative weight distribution, dynamic weight bearing)” value in the assay with C57BL/6 mice is reported as “significantly reduced pain behavior”. Further, on human P2X4, the Emax stood at 95%.

The values above are taken from patent US11524938B2, “Aromatic sulfonamide derivatives” (Bayer Pharma Aktiengesellschaft, priority 2016, dated 2022).
